Data from patent publication US9975896B2, “Inhibitors of transcription factors and uses thereof” (Dana-Farber Cancer Institute, Inc., priority 2013, dated 2018).
Read-outs that look alike come from different tables or passages of the source.

Key:
ATAD2B = molecular target: T1, ATAD2B (Homo sapiens, UniProt Q9ULI0); assay: BromoScan selectivity panel (Kd); assay type: binding
T1 sequence (Q9ULI0 953-1085 limits assumed): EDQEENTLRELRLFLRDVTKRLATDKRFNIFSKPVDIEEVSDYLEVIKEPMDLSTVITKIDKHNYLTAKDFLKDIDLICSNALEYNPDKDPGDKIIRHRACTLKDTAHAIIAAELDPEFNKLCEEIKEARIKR

BRD1 = molecular target: T2, BRD1 (Homo sapiens, UniProt O95696); assay: BromoScan selectivity panel (Kd); assay type: binding
T2 sequence (O95696 556-688 limits assumed): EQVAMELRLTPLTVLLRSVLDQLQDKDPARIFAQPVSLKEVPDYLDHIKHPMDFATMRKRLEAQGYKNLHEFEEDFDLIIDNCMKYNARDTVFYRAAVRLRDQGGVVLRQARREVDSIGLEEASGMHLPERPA

BRD2(2) = molecular target: T3, BRD2(2) (Homo sapiens, UniProt P25440); assay: BromoScan selectivity panel (Kd); assay type: binding
T3 construct: the bromodomain-containing protein is BRD2(2)

BRD3(2) = molecular target: T4, BRD3(2) (Homo sapiens, UniProt Q15059); assay: BromoScan selectivity panel (Kd); assay type: binding
T4 construct: the bromodomain-containing protein is BRD3(2)

BRD4(2) = molecular target: T5, BRD4(2) (Homo sapiens, UniProt O60885); assay: BromoScan selectivity panel (Kd); assay type: binding
T5 construct: the bromodomain-containing protein is BRD4(2)

BRD9 = molecular target: T6, BRD9 (Homo sapiens, UniProt Q9H8M2); assay: BromoScan selectivity panel (Kd); assay type: binding
T6 sequence (Q9H8M2 130-250 limits assumed): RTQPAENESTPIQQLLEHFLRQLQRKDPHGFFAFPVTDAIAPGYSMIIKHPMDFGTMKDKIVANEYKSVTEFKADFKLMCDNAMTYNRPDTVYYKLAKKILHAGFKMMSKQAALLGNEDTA

BRPF1 = molecular target: T7, BRPF1 (Homo sapiens, UniProt P55201); assay: BromoScan selectivity panel (Kd); assay type: binding
T7 sequence (P55201 626-740 limits assumed): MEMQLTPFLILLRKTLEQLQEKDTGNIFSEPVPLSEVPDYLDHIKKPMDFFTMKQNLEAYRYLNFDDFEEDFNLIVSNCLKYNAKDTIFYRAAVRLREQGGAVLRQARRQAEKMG

BRPF3 = molecular target: T8, BRPF3 (Homo sapiens, UniProt Q9ULD4); assay: BromoScan selectivity panel (Kd); assay type: binding
T8 sequence (Q9ULD4 589-693 limits assumed): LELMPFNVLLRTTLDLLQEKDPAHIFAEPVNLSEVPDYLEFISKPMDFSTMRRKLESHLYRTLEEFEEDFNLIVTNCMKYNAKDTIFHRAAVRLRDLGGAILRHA

EP300 = molecular target: T9, EP300 (Homo sapiens, UniProt Q09472); assay: BromoScan selectivity panel (Kd); assay type: binding
T9 sequence (Q09472 1040-1161 limits assumed): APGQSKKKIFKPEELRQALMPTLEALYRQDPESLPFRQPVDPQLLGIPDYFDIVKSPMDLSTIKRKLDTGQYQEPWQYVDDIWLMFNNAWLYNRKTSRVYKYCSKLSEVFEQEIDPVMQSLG

FALZ = FALZ (Homo sapiens, UniProt Q12830); assay: BromoScan selectivity panel (Kd); assay type: binding
PERM1(2) = molecular target: T10, PERM1(2) (Homo sapiens, UniProt Q86U86); assay: BromoScan selectivity panel (Kd); assay type: binding
T10 construct: PERM1(2)

TAF1L(2) = molecular target: T11, TAF1L(2) (Homo sapiens, UniProt Q8IZX4); assay: BromoScan selectivity panel (Kd); assay type: binding
T11 construct: TAF1L(2)
T11 sequence (Q8IZX4 1517-1626 limits assumed): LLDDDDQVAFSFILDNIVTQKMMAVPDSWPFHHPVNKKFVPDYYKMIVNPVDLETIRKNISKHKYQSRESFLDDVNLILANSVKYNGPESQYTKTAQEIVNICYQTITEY

WDR9(2) = molecular target: T12, WDR9(2) (Homo sapiens, UniProt Q9NSI6); assay: BromoScan selectivity panel (Kd); assay type: binding
T12 construct: WDR9(2)

CBP = CBP (Homo sapiens, UniProt Q92793); assay: BromoScan selectivity panel (Kd)
[1] = test system: BRD4-dependent Nut-Midline Carcinoma line 797; assay: Cell viability (ATPlite) in BRD4 dependant cell line 797; settings: for EC50: Homo sapiens
BRD4 = BRD4 (Homo sapiens, UniProt O60885); assay: In vitro AlphaScreen protein binding assay (competition with biotinylated JQ1); settings: for IC50: AlphaScreen
Procedure: Assays were performed with minor modifications from the manufacturer's protocol (PerkinElmer, USA). All reagents were diluted in 50 mM HEPES, 150 mM NaCl, 0.1% w/v BSA, and 0.01% w/v Tween® 20 at pH 7.5 and allowed to equilibrate to room temperature prior to addition to plates. After addition of Alpha beads to master solutions, all subsequent steps were performed in low light conditions. […] After a 1000-rpm spin-down for 1 minute, 100 nL of the solutions of compounds of the invention in DMSO from stock plates were added by pin transfer using a Janus Workstation (PerkinElmer, USA). The streptavidin-coated donor beads (25 μg/ml final) were added as with previous solution in a 2×, 10 μL volume. Following this addition, the plates were sealed with foil to block light exposure and to prevent evaporation. The plates were spun down again at 1000 rpm for 1 minute. Next, the plates were incubated in the room with the plate reader (for temperature equilibration) for 1 hour prior to reading the assay. Signal is stable for up to 3 hours after donor bead addition.

T4 sequence (Q15059 306-415 limits assumed): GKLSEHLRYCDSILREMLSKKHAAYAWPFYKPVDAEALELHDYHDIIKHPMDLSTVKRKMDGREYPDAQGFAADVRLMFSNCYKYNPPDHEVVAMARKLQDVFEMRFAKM
Sequence of CBP (Q92793 1081-1197 limits assumed): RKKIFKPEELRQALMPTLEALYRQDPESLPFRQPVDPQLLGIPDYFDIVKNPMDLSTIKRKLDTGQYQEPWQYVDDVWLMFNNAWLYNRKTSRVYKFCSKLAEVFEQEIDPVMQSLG
T12 sequence (Q9NSI6 1313-1418 limits assumed): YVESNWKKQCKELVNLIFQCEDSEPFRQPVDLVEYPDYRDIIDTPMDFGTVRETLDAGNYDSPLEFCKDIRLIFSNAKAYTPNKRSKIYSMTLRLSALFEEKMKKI
T3 sequence (P25440 344-453 limits assumed): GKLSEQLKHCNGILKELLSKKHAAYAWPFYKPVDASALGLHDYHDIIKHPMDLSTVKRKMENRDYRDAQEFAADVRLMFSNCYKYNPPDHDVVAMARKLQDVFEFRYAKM
T10 sequence (Q86U86 177-287 limits assumed): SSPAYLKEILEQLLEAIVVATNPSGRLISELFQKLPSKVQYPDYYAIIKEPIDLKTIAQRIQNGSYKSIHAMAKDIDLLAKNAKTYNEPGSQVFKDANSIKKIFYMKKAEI

Cc1noc(C)c1-c1ccc(-c2nc3cnccn3c2NC(C)(C)C)cc1 [UMB32, N-(tert-butyl)-2-(4-(3,5-dimethylisoxazol-4-yl)phenyl)imidazo[1,2-a]pyrazin-3-amine]
Kd (ATAD2B; Table 8, read-out: Kd (nM) ATAD2B): ≥ 40000 nM
Kd (ATAD2B; Table 9, read-out: BromoScan Kd, nM ATAD2B): ≥ 40000 nM
Kd (BRD1; Table 8, read-out: Kd (nM) BRD1): ≥ 40000 nM
Kd (BRD1; Table 9, read-out: BromoScan Kd, nM BRD1): ≥ 40000 nM
Kd (BRD2(2); Table 8, read-out: Kd (nM) BRD2(2)): 95 nM
Kd (BRD2(2); Table 9, read-out: BromoScan Kd, nM BRD2(2)): 95 nM
Kd (BRD3(2); Table 8, read-out: Kd (nM) BRD3(2)): 38 nM
Kd (BRD3(2); Table 9, read-out: BromoScan Kd, nM BRD3(2)): 38 nM
Kd (BRD4(2); Table 8, read-out: Kd (nM) BRD4(2)): 31 nM
Kd (BRD4(2); Table 9, read-out: BromoScan Kd, nM BRD4(2)): 31 nM
Kd (BRD9; Table 8, read-out: Kd (nM) BRD9): ≥ 40000 nM
Kd (BRD9; Table 9, read-out: BromoScan Kd, nM BRD9): ≥ 40000 nM
Kd (BRPF1; Table 8, read-out: Kd (nM) BRPF1): ≥ 40000 nM
Kd (BRPF1; Table 9, read-out: BromoScan Kd, nM BRPF1): ≥ 40000 nM
Kd (BRPF3; Table 8, read-out: Kd (nM) BRPF3): ≥ 40000 nM
Kd (BRPF3; Table 9, read-out: BromoScan Kd, nM BRDF3): ≥ 40000 nM
Kd (EP300; Table 8, read-out: Kd (nM) EP300): 4500 nM
Kd (EP300; Table 9, read-out: BromoScan Kd, nM EP300): 4500 nM
Kd (FALZ; Table 8, read-out: Kd (nM) FALZ): ≥ 40000 nM
Kd (FALZ; Table 9, read-out: BromoScan Kd, nM FALZ): ≥ 40000 nM
Kd (PERM1(2); Table 8, read-out: Kd (nM) PERM1(2)): ≥ 40000 nM
Kd (PERM1(2); Table 9, read-out: BromoScan Kd, nM PERM1(2)): ≥ 40000 nM
Kd (TAF1L(2); Table 8, read-out: Kd (nM) TAF1L(2)): 1300 nM
Kd (TAF1L(2); Table 9, read-out: BromoScan Kd, nM TAF1L(2)): 1300 nM
Kd (WDR9(2); Table 8, read-out: Kd (nM) WDR9(2)): ≥ 40000 nM
Kd (WDR9(2); Table 9, read-out: BromoScan Kd, nM WDR9(2)): ≥ 40000 nM
Kd (CBP; read-out: BromoScan Kd, nM CREBBP, Table 9): 4500 nM
Kd (CBP; read-out: Kd (nM) CBP, Table 8): 4500 nM
EC50 [1]: 1.13 µM
EC50 ([1]; read-out: 797--EC50 (μM)): 0.724 µM
EC50 ([1]; read-out: BRD4 EC50 (μM)): 1.1 µM
cellular activity in the BRD4 dependant cell line ([1]; text b618, b620): shows cellular activity in the BRD4 dependant cell line
IC50 (BRD4; BRD4 IC50 (μM), Table 3): 0.26 µM
IC50 (BRD4; IC50 (M), Table 1, in vitro, inhibiting the activity of BRD4): 0.256 µM
inhibition of the activity of BRD4 in vitro (BRD4; text b614, b618): active in inhibiting the activity of BRD4 in vitro
